Measurements reported in patent publication US20090318530A1, “PHARMACEUTICAL COMPOSITIONS COMPRISING NK1 RECEPTOR ANTAGONISTS AND SODIUM CHANNEL BLOCKERS” (GLAXO GROUP LIMITED, priority 2007, published 2009).
Where two headings read alike, the source gives them in different places.

Legend:
[1] = tested on: threshold for tonic hindlimb extensor seizures; assay: Maximal electroshock seizure threshold (MEST) test, 'up and down' method; assay type: in vivo, rat; conditions: male CD rats
Experimental: This work was conducted in compliance with the Home Office Guidance on the operation of the Animals (Scientific Procedures) Act 1986 and GlaxoSmithKline ethical standards. Male CD rats (100-145 g) were supplied by Charles River, UK. Animals were group housed (6 animal per cage) with free access to food (Standard rodent chow; Harlan, UK) and water under a 12 h light/dark cycle (lights on at 0700 h). A period of at least one week between arrival at GSK and the study was allowed in all cases.
Animals were administered a test compound at the appropriate dose, route and pre-treatment time and returned to their home cage. Testing occurred in a separate room from that used for housing. […] Seizure threshold was determined using the ‘up and down’ method of Kimball et al. (1957)(Kimball A W, Burnett W T Jr, Doherty D G. (1957) Radiat Res. 7(1):1-12). […]
All doses were calculated as base. […]
Induction of seizure is measured as an all-or-nothing effect scored as either present (+) or absent (0) for each animal. […] Drug effects were calculated as the % change in CC50. Significant differences between drug-treated animals and appropriate vehicle treated groups were assessed according to the methods of Litchfield and Wilcoxon (1949). The statistical significance of differences between (5R)-5-(4-{[(2-fluorophenyl)methyl]oxy}phenyl)-L-prolinamide or in combination with ENK6 was assessed using a Student's t test.

[2] = Blood and brain drug concentrations in satellite animals; assay type: in vivo; conditions: rat; for concentration at 30 min / concentration at 60 min: CD; for concentration at 30 min: subcutaneous; for concentration at 60 min: intraperitoneal
Experimental: […] Blood and brain samples were taken for analysis of the drug concentrations in these compartments.
All doses were calculated as base. ENa8 was dosed via the subcutaneous (s.c.) route at 1 ml/kg in a 2% v/v DMSO/saline vehicle 30 minutes prior to test. Compound ENK6 was dosed with via the intraperitoneal (i.p.) route 60 minutes before the test. ENK6 was dissolved in saline.

| Compound | seizure threshold in the MEST ([1]; ENa8 3 mg/kg s.c. alone, 30 min prior to test) | concentration at 30 min ([2]; brain, 1 mg/kg, ENa8 1 mg/kg, ENK6 veh, rat satellite animals n=2, read-out: Brain ENa8) [ng/g] | concentration at 30 min ([2]; brain, 3 mg/kg, ENa8 3 mg/kg, ENK6 veh, rat satellite animals n=2, read-out: Brain ENa8) [ng/g] | concentration at 30 min ([2]; brain, ENa8 1 mg/kg + ENK6 30 mg/kg, rat satellite animals n=2, read-out: Brain ENa8) [ng/g] | concentration at 30 min ([2]; brain, ENa8 3 mg/kg + ENK6 30 mg/kg, rat satellite animals n=2, read-out: Brain ENa8) [ng/g] | concentration at 30 min ([2]; whole blood, 1 mg/kg, ENa8 1 mg/kg, ENK6 veh, rat satellite animals n=2, read-out: Blood ENa8) [ng/mL] | concentration at 30 min ([2]; whole blood, 3 mg/kg, ENa8 3 mg/kg, ENK6 veh, rat satellite animals n=2, read-out: Blood ENa8) [ng/mL] | concentration at 30 min ([2]; whole blood, ENa8 1 mg/kg + ENK6 30 mg/kg, rat satellite animals n=2, read-out: Blood ENa8) [ng/mL] | concentration at 30 min ([2]; whole blood, ENa8 3 mg/kg + ENK6 30 mg/kg, rat satellite animals n=2, read-out: Blood ENa8) [ng/mL] | blood or brain concentration of ENa8 in the presence of ENK6 ([2]; ENa8 1 or 3 mg/kg s.c. with ENK6 30 mg/kg i.p. versus ENa8 alone) | seizure threshold in the MEST ([1]; ENK6 30 mg/kg i.p. alone, 60 min before test) | concentration at 60 min ([2]; brain, 30 mg/kg, ENK6 30 mg/kg, ENa8 veh, rat satellite animal n=1, read-out: Brain ENK6) [ng/g] | concentration at 60 min ([2]; brain, ENK6 30 mg/kg + ENa8 1 mg/kg, rat satellite animals n=2, read-out: Brain ENK6) [ng/g] | concentration at 60 min ([2]; brain, ENK6 30 mg/kg + ENa8 3 mg/kg, rat satellite animals n=2, read-out: Brain ENK6) [ng/g] | concentration at 60 min ([2]; whole blood, 30 mg/kg, ENK6 30 mg/kg, ENa8 veh, rat satellite animal n=1, read-out: Blood ENK6) [ng/mL] | concentration at 60 min ([2]; whole blood, ENK6 30 mg/kg + ENa8 1 mg/kg, rat satellite animals n=2, read-out: Blood ENK6) [ng/mL] | concentration at 60 min ([2]; whole blood, ENK6 30 mg/kg + ENa8 3 mg/kg, rat satellite animals n=2, read-out: Blood ENK6) [ng/mL] |
| --- | --- | --- | --- | --- | --- | --- | --- | --- | --- | --- | --- | --- | --- | --- | --- | --- | --- |
| Cl.NC(=O)[C@@H]1CC[C@H](c2ccc(OCc3ccccc3F)cc2)N1 [ENa8, (5R)-5-(4-{[(2-fluorophenyl)methyl}oxy]phenyl)-L-prolinamide hydrochloride] | small, but significant increase | 1170 | 2300 | 1340 | 2620 | 188 | 349 | 246 | 456 | No increase | – | – | – | – | – | – | – |
| COc1ccc(-n2nnnc2C(F)(F)F)cc1CN[C@H]1CCCN[C@H]1c1ccccc1.Cl.Cl [ENK6, [2-Methoxy-5-(5-trifluoromethyl-tetrazol-1-yl)-benzyl]-([2S,3S]-2-phenyl-piperidin-3-yl)-amine dihydrochloride] | – | – | – | – | – | – | – | – | – | – | no effect | 1510 | 1160 | 881 | 631 | 471 | 414 |
